As a reminder, the IC50 is the concentration needed to halve the response being measured.

The structures appear in SMILES notation. Some results are limits rather than exact numbers.

We go through 16 compounds from patent publication EP4582426A1, “PAN-KRAS INHIBITOR COMPOUND” (Adlai Nortye Biopharma Co., Ltd., priority 2022, dated 2024).

One test relates to SW480 (G12V). As to the kind of experiment: In vitro cell proliferation inhibition test (CellTiter-Glo Luminescent Cell Viability Assay). It counts as cell-based. The following applies: SW480 cell line, Large intestine, Colon, KRAS (p.G12V), cells and compounds co-incubated 72 hours. From the text:
(§1) Due to the diversity of RAS mutations and in order to evaluate the activity of compounds in different RAS mutant cell lines, we selected KRAS^WT, KRAS^G12C, KRAS^G12D), KRAS^G12V and BRAF mutant cell lines (see the table below) for in vitro activity evaluation and screening of compounds .
(§2) Experimental protocol: CellTiter-Glo® Cell Luminescent Viability Assay (Promega)
(§3) According to the doubling time of different cell lines, different numbers of cells (1000-5000 cells/well) were inoculated into 96-well plates containing 180 µl of the corresponding medium, and cultured overnight in a 37°C cell incubator containing 5% CO2. On the second day, the compound to be tested was pre-diluted 3-fold with the medium, the highest concentration was 100 µM, and there were 10 concentration gradients in total; then 20 µl of the medium containing different concentrations of the compound was added to the cells in the 96-well plate to ensure the final concentration of the compound to be up to 10 µM, with 10 concentration gradients of 3-fold dilutions. After co-incubating cells and compounds for 72 hours, the 96-well plate was taken out of the incubator, placed at room temperature for 30 minutes, and then 25 µl CellTiter-Glo® Reagent was added to each well to mix well, and incubated at room temperature for 10 minutes, and then 100 µl of the sample was transferred to a white 96-well plate (OptiPlateTM-96, PerkinElmer), the […] signal value was read using a multi-functional microplate reader (SpectraMax® i3x, Molecular devices). Subsequently, the signal value was standardized, and the four-parameter fitting regression equation was used for curve fitting to calculate the half maximal inhibitory concentration (IC50) of the compound on the cell line. Table 3: Antiproliferative activity of compounds of the present invention on KRAS cell mutants
A general note: In ATP-based viability assays light output follows the ATP content of the culture.

The test system of another test is AsPC-1 (G12D). The test is described as above. In kind it is cell-based. The following applies: AsPC-1 cell line, Pancreas, KRAS (p.G12D), cells and compounds co-incubated 72 hours.
Text: as §1, §2, §3

As to `CCn1c(-c2cc(C#CCN3CCOC(CO)C3)cnc2C(C)OC)c2c3cc(ccc31)-c1csc(n1)CC(NC(=O)C1CC1C)C(=O)N1CCCC(N1)C(=O)OCC(C)(C)C2` (single isomer, unassigned) [Example 20], the IC50 in the test on SW480 (G12V) worked out at 8.9 nM; in the test with AsPC-1 (G12D), 2.4 nM.

Consider `CCn1c(-c2cc(C#CCN3CCC(F)C3)cnc2C(C)OC)c2c3cc(ccc31)-c1csc(n1)CC(NC(=O)C1C(C)C1C)C(=O)N1CCCC(N1)C(=O)OCC(C)(C)C2` (single isomer, unassigned) [Example 21], for which the IC50 came out at 1.1 nM in the test on SW480 (G12V) and 0.82 nM in the test on AsPC-1 (G12D).

Consider `CCn1c(-c2cc(C#CCN3CCOCC3)cnc2[C@H](C)OC)c2c3cc(ccc31)-c1csc(n1)C[C@H](NC(=O)[C@H]1C[C@@H]1c1ccccc1)C(=O)N1CCC[C@H](N1)C(=O)OCC(C)(C)C2` (single isomer, unassigned) [Example 23], for which the IC50 with SW480 (G12V) is 3.8 nM; in the test on AsPC-1 (G12D) it was 1.6 nM.

With `CCn1c(-c2cc(C#CCN3CCOCC3)cnc2C(C)OC)c2c3cc(ccc31)-c1csc(n1)CC(NC(=O)C1CC1F)C(=O)N1CCCC(N1)C(=O)OCC(C)(C)C2` (single isomer, unassigned) [Example 24], the IC50 with SW480 (G12V) was determined as 58.4 nM; in the test with AsPC-1 (G12D), 24.2 nM.

For `CCn1c(-c2cc(C#CCN3CCOCC3CO)cnc2C(C)OC)c2c3cc(ccc31)-c1csc(n1)CC(NC(=O)C1C(C)C1C)C(=O)N1CCCC(N1)C(=O)OCC(C)(C)C2` (single isomer, unassigned) [Example 25], the figures for the IC50 in the test on SW480 (G12V) and in the test with AsPC-1 (G12D) were 0.51 nM and 0.35 nM, respectively.

As for `CCn1c(-c2cc(C#CCN3CCOCC3)cnc2[C@H](C)OC)c2c3cc(ccc31)-c1csc(n1)C[C@H](NC(=O)C1(C(F)(F)F)CC1)C(=O)N1CCC[C@H](N1)C(=O)OCC(C)(C)C2` (single isomer, unassigned) [Example 26], the IC50 in the test with SW480 (G12V) turned out to be 34.6 nM; in the test on AsPC-1 (G12D), 20.8 nM.

As to `CCn1c(-c2cc(C#Cc3cnccn3)cnc2[C@H](C)OC)c2c3cc(ccc31)-c1csc(n1)C[C@H](NC(=O)[C@H]1C[C@@H]1C)C(=O)N1CCC[C@H](N1)C(=O)OCC(C)(C)C2` (single isomer, unassigned) [Example 27], the IC50 turned out to be 14.5 nM in the test on SW480 (G12V) and 4.6 nM in the test with AsPC-1 (G12D).

Consider `CCn1c(-c2cc(C#Cc3cccc4c3CN(C)C4)cnc2[C@H](C)OC)c2c3cc(ccc31)-c1csc(n1)C[C@H](NC(=O)[C@H]1C[C@@H]1C)C(=O)N1CCC[C@H](N1)C(=O)OCC(C)(C)C2` (single isomer, unassigned) [Example 30], for which the IC50 with SW480 (G12V) amounted to 84.2 nM; with AsPC-1 (G12D), 8.2 nM.

As to `CCNc1cccc(C#Cc2cnc([C@H](C)OC)c(-c3c4c5cc(ccc5n3CC)-c3csc(n3)C[C@H](NC(=O)[C@H]3C[C@@H]3C)C(=O)N3CCC[C@H](N3)C(=O)OCC(C)(C)C4)c2)n1` (single isomer, unassigned) [Example 31], the IC50 in the test with SW480 (G12V) turned out to be 100 nM; with AsPC-1 (G12D), 78 nM.

Consider `CCNc1ccc(C#Cc2cnc(C(C)OC)c(-c3c4c5cc(ccc5n3CC)-c3csc(n3)CC(NC(=O)C3C(C)C3C)C(=O)N3CCCC(N3)C(=O)OCC(C)(C)C4)c2)nn1` [32+32, (1r,2R,3S)-N-((6^3S,4S,Z)-1^1-ethyl-1^2-(5-((6-(ethylamino)pyridazin-3-yl)ethynyl)-2-((S)-1-methoxyethyl)pyridin-3-yl)-10,10-dimethyl-5,7-dioxo-6^1,6^2,6^3,6^4,6^5,6^6-hexahydro-1^1H-8-oxa-2(4,2)-thiazola-1(5,3)-indola-6(1,3)-pyridazinacycloundecaphane-4-yl)-2,3-dimethylcyclopropane-1-carboxamide], for which the IC50 in the test on SW480 (G12V) was 55.4 nM; in the test on AsPC-1 (G12D) it was 15.3 nM.

In the case of `CCn1c(-c2cc(C#CCN3CCOCC3)cnc2[C@H](C)OC)c2c3cc(ccc31)-c1csc(n1)C[C@H](NC(=O)[C@H]1[C@H](C)[C@@H]1C)C(=O)N1CCC[C@H](N1)C(=O)OCC(C)(C)C2` [Example 2, (1r,2R,3S)-N-((63S,4S,Z)-11-ethyl-12-(2-((S)-1-methoxyethyl)-5-(3-morpholinoprop-1-yn-1-yl)pyridin-3-yl)-10,10-dimethyl-5,7-dioxo-61,62,63,64,65,66-hexahydro-11H-8-oxa-2(4,2)-thiazola-1(5,3)-indola-6(1,3)-pyridazinacycloundecaphane-4-yl)-2,3-dimethylcyclopropane-1-carboxamide], the IC50 in the test with SW480 (G12V) came out at 0.33 nM; in the test on SW480 (G12V) (listed as 2') it was 74 nM; with AsPC-1 (G12D) it was 0.25 nM; with AsPC-1 (G12D) (listed as 2') it was 172 nM.

For the compound `CCn1c(-c2cc(C#C[C@@H]3COCCN3C)cnc2[C@H](C)OC)c2c3cc(ccc31)-c1csc(n1)C[C@H](NC(=O)[C@H]1C[C@@H]1C)C(=O)N1CCC[C@H](N1)C(=O)OCC(C)(C)C2` [Example 7, (1S,2S)-N-((63S,4S,Z)-11-ethyl-12-(2-((S)-1-methoxyethyl)-5-(((R)-4-methylmorpholin-3-yl)ethynyl)pyridin-3-yl)-10,10-dimethyl-5,7-dioxo-61,62,63,64,65,66-hexahydro-11H-8-oxa-2(4,2)-Thiazola-1(5,3)-indola-6(1,3)-pyridazinacyclonecaphane-4-yl)-2-methylcyclopropane-1-carboxamide], the IC50 with SW480 (G12V) amounted to 4.6 nM; in the test with SW480 (G12V) (listed as 7'), 830 nM; in the test with AsPC-1 (G12D), 5.1 nM; in the test on AsPC-1 (G12D) (listed as 7'), 2640 nM.

As to `CCn1c(-c2cc(C#CC3CN(C)C3)cnc2C(C)OC)c2c3cc(ccc31)-c1csc(n1)CC(NC(=O)C1CC1C)C(=O)N1CCCC(N1)C(=O)OCC(C)(C)C2` [Example 12, (1S,2S)-N-((63S,4S,Z)-11-ethyl-12-(2-((S)-1-methoxyethyl)-5-((1-methylazetidin-3-yl)ethynyl)pyridin-3-yl)-10,10-dimethyl-5,7-dioxo-61,62,63,64,65,66-hexahydro-11H-8-oxa-2(4,2)-thiazola-1(5,3)-indola-6(1,3)-pyridazinacyclonecaphane-4-yl)-2-methylcyclopropane-1-carboxamide], the half-maximal inhibitory concentration (IC50) with SW480 (G12V) turned out to be 33.9 nM; with SW480 (G12V) (listed as 12'), 1790 nM; with AsPC-1 (G12D), 11.8 nM; in the test with AsPC-1 (G12D) (listed as 12') it was 443 nM.

For `CCn1c(-c2cc(C#C[C@@H]3CCN3C)cnc2[C@H](C)OC)c2c3cc(ccc31)-c1csc(n1)C[C@H](NC(=O)[C@H]1C[C@@H]1C)C(=O)N1CCC[C@H](N1)C(=O)OCC(C)(C)C2` [Example 13, (1S,2S)-N-((63S,4S,Z)-11-ethyl-12-(2-((S)-1-methoxyethyl)-5-(((S)-1-methylazetidin-2-yl)ethynyl)pyridin-3-yl)-10,10-dimethyl-5,7-dioxo-61,62,63,64,65,66-hexahydro-11H-8-oxa-2(4,2)-Thiazola-1(5,3)-indola-6(1,3)-pyridazinacyclonecaphane-4-yl)-2-methylcyclopropane-1-carboxamide], the IC50 in the test on SW480 (G12V) stood at 7590 nM; with AsPC-1 (G12D), 5.7 nM; in the test with AsPC-1 (G12D) (listed as 13') it was 2820 nM.

In the case of `CCn1c(-c2cc(C#C[C@@H]3CCN(C)C3)cnc2[C@H](C)OC)c2c3cc(ccc31)-c1csc(n1)C[C@H](NC(=O)C1[C@@H](C)[C@H]1C)C(=O)N1CCC[C@H](N1)C(=O)OCC(C)(C)C2` (stereo partly drawn) [Example 14], the IC50 in the test with SW480 (G12V) is 0.2 nM; in the test on AsPC-1 (G12D), below 0.1 nM; in the test with AsPC-1 (G12D) (listed as 14'), 57.1 nM.

Consider `CCn1c(-c2cc(C#CCN3CCOC[C@H]3C)cnc2[C@H](C)OC)c2c3cc(ccc31)-c1csc(n1)C[C@H](NC(=O)[C@H]1C[C@@H]1C)C(=O)N1CCC[C@H](N1)C(=O)OCC(C)(C)C2` [Example 15, (1S,2S)-N-((63S,4S,Z)-11-ethyl-12-(2-((S)-1-methoxyethyl)-5-(3-((R)-3-methylmorpholino)prop-1-yn-1-yl)pyridin-3-yl)-10,10-dimethyl-5,7-dioxo-61,62,63,64,65,66-hexahydro-11H-8-oxa-2 (4,2)-thiazola-1(5,3)-indola-6(1,3)-pyridazinacyclonecaphane-4-yl)-2-methylcyclopropane-1-carboxamide], for which the IC50 in the test with SW480 (G12V) turned out to be 2.2 nM; in the test with SW480 (G12V) (listed as 15') it was 1060 nM; in the test with AsPC-1 (G12D), 1.7 nM; in the test on AsPC-1 (G12D) (listed as 15'), 1880 nM.
